Reference: ChEMBL document CHEMBL3997848 (Bioorg Med Chem, 2017)
Square brackets hold non-standard residues; d marks the D form. Peptide text beside a SMILES is read from it.

Experiments:
[1] = molecular target: Mu opioid receptor-like OR2 (Danio rerio, UniProt B8JHS2); experiment: Displacement of [3H]DPN from zebrafish mu opioid receptor expressed in HEK293 cell membranes after 1 hr by scintillation counting method
[2] = molecular target: Opioid receptor, delta 1b (Danio rerio, UniProt B3DH72); experiment: Displacement of [3H]DPN from zebrafish delta 1b opioid receptor expressed in HEK293 cell membranes after 4 hrs by scintillation counting method
Sequence of Opioid receptor, delta 1b (B3DH72 whole entry): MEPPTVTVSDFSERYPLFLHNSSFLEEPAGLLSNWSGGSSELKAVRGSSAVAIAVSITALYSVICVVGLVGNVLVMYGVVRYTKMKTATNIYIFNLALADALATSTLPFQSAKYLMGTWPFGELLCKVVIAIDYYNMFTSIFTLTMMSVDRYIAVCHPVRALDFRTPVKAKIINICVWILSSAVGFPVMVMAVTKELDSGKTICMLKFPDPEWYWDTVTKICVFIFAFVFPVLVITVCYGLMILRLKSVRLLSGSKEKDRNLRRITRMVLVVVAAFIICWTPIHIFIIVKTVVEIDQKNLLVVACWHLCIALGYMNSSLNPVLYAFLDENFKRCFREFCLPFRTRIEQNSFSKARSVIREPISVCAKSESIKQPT

[3] = molecular target: Opioid receptor homologue (Danio rerio, UniProt A3QJX7); experiment: Displacement of [3H]DPN from zebrafish delta 1a opioid receptor expressed in HEK293 cell membranes after 1 hr by scintillation counting method
Sequence of Opioid receptor homologue (A3QJX7 whole entry): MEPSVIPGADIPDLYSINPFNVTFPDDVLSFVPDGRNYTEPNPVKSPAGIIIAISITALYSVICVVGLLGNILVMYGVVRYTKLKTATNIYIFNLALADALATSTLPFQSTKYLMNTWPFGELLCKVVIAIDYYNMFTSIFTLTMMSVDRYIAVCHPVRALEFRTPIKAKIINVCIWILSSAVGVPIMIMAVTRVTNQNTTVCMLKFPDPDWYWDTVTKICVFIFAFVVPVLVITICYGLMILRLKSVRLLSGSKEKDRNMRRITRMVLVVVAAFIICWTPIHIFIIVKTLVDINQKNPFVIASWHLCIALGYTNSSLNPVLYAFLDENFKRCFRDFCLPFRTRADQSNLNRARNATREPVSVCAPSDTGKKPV

Mus musculus [4] = experiment: Antinociceptive activity in C57BL6/J mouse assessed as analgesia at 5 mg/kg, ip measured after 30 mins by tail flick test (reference value: -7%); assay type: functional
Mus musculus [5] = experiment: Antinociceptive activity in C57BL6/J mouse assessed as analgesia at 5 mg/kg, ip measured after 60 mins by tail flick test (reference value: 3%); assay type: functional
Mus musculus [6] = experiment: Antinociceptive activity in C57BL6/J mouse assessed as analgesia at 5 mg/kg, ip measured after 90 mins by tail flick test (reference value: 10%); assay type: functional
Mus musculus [7] = experiment: Antinociceptive activity in C57BL6/J mouse assessed as analgesia at 5 mg/kg, ip measured after 120 mins by tail flick test (reference value: -8%); assay type: functional
Mus musculus [8] = experiment: Antinociceptive activity in C57BL6/J mouse assessed as analgesia at 8 mg/kg, ip measured after 30 mins by tail flick test (reference value: -7%); assay type: functional
Mus musculus [9] = experiment: Antinociceptive activity in C57BL6/J mouse assessed as analgesia at 8 mg/kg, ip measured after 60 mins by tail flick test (reference value: 3%); assay type: functional
Mus musculus [10] = experiment: Antinociceptive activity in C57BL6/J mouse assessed as analgesia at 8 mg/kg, ip measured after 90 mins by tail flick test (reference value: 10%); assay type: functional
Mus musculus [11] = experiment: Antinociceptive activity in C57BL6/J mouse assessed as analgesia at 8 mg/kg, ip measured after 120 mins by tail flick test (reference value: -8%); assay type: functional

Sequence of Mu opioid receptor-like OR2 (B8JHS2 whole entry): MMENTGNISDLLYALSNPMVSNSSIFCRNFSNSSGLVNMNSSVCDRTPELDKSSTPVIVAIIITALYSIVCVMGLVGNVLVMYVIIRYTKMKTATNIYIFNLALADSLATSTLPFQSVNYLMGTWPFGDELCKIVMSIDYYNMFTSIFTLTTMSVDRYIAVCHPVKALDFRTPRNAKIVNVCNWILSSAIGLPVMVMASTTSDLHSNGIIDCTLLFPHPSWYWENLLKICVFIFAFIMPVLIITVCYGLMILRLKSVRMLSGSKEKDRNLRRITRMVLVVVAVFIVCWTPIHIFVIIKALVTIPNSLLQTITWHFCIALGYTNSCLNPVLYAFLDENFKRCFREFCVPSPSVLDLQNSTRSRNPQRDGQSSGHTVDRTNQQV

| Structure (SMILES) | Ki [1] [µM] | Ki [2] [µM] | Ki [3] [µM] | Activity (Mus musculus [4]) [%] | Activity (Mus musculus [5]) [%] | Activity (Mus musculus [6]) [%] | Activity (Mus musculus [7]) [%] | Activity (Mus musculus [8]) [%] | Activity (Mus musculus [9]) [%] | Activity (Mus musculus [10]) [%] | Activity (Mus musculus [11]) [%] |
| --- | --- | --- | --- | --- | --- | --- | --- | --- | --- | --- | --- |
| CSCC[C@H](NC(=O)[C@H](Cc1ccccc1)NC(=O)CNC(=O)CNC(=O)[C@@H](N)Cc1ccc(O)cc1)C(=O)O | 0.684 | 0.045 | – | – | – | – | – | – | – | – | – |
| CSCC[C@@H](NC(=O)[C@@H](N)Cc1ccc(O)cc1)C(=O)NCC(=O)N[C@@H](Cc1ccccc1)C(=O)N1C[C@@H](O[C@H]2O[C@H](CO)[C@@H](O)[C@H](O)[C@@H]2O)C[C@H]1C(N)=O | 0.239 | 0.536 | 0.609 | 40 | 60 | 50 | 40 | 45 | 62 | 35 | 45 |
| CSCC[C@@H](NC(=O)[C@@H](N)Cc1ccc(O)cc1)C(=O)NCC(=O)N[C@@H](Cc1ccccc1)C(=O)N1C[C@@H](O[C@@H]2O[C@H](CO)[C@@H](O)[C@H](O)[C@H]2O)C[C@H]1C(N)=O | 0.313 | 0.159 | 0.389 | – | – | – | – | – | – | – | – |
| CSCC[C@@H](NC(=O)[C@@H](N)Cc1ccc(O)cc1)C(=O)NCC(=O)N[C@@H](Cc1ccccc1)C(=O)N1C[C@@H](O[C@@H]2O[C@H](CO)[C@@H](O[C@H]3O[C@@H](CO)[C@H](O)[C@@H](O)[C@@H]3O)[C@H](O)[C@H]2O)C[C@H]1C(N)=O | 0.223 | 0.528 | 0.843 | – | – | – | – | – | – | – | – |
| CSCC[C@@H](NC(=O)[C@@H](N)Cc1ccc(O)cc1)C(=O)NCC(=O)N[C@@H](Cc1ccccc1)C(=O)N1C[C@@H](O[C@@H]2O[C@H](CO)[C@@H](O[C@H]3O[C@@H](CO)[C@@H](O)[C@@H](O)[C@@H]3O)[C@H](O)[C@H]2O)C[C@H]1C(N)=O | 0.203 | 0.559 | 0.635 | – | – | – | – | – | – | – | – |
| CSCC[C@@H](NC(=O)[C@@H](N)Cc1ccc(O)cc1)C(=O)NCC(=O)N[C@@H](Cc1ccccc1)C(=O)N1C[C@@H](O[C@@H]2O[C@H](CO)[C@H](O)[C@H](O)[C@H]2O)C[C@H]1C(N)=O | 0.383 | 0.518 | 0.468 | – | – | – | – | – | – | – | – |
| CSCC[C@@H](NC(=O)[C@@H](N)Cc1ccc(O)cc1)C(=O)NCC(=O)N[C@@H](Cc1ccccc1)C(=O)N1CCC[C@H]1C(N)=O (H-Y[dM]GFP-NH2) | 0.269 | 0.256 | 0.566 | – | – | – | – | – | – | – | – |
| CN1CC[C@]23c4c5ccc(O)c4O[C@H]2[C@@H](O)C=C[C@H]3[C@H]1C5 [MORPHINE] | – | – | – | 30 | 51 | 45 | 30 | – | – | – | – |
